Reference: US8710233B2 (Gruenenthal GmbH, priority 2005, dated 2014)
Where two headings read alike, the source gives them in different places.

Experiments:
[1] = molecular target: VR1/TRPV1 receptor (Homo sapiens, UniProt Q8NER1); test: IC50 (human) after pH stimulus; format: cell-based; details: for IC50: table 4
[2] = molecular target: T1, vanilloid receptor (VR1) (Homo sapiens, UniProt Q8NER1); test: FLIPR Ca2+ influx assay on CHO K1 cells transfected with the VR1 gene (pharmacological method II); format: cell-based; details: table 4; capsaicin; read-out: Ki (human) Cap.
T1 construct: expressed in transfected cells; host or cells: CHO K1 cells (ECACC), stably transfected

[3] = tested on: capsaicin induced hypothermie; test: Hypothermie assay in the mouse (capsaicin induced hypothermie); format: in vivo; details: mouse, read-out: inhibition hypothermie (n = 5); for inhibition in vivo at 0.3 mg/kg: 0.3 mg/kg body weight po; for inhibition in vivo at 0.1 mg/kg: 0.1 mg/kg body weight po
Protocol: V. Hypothermie Assay an der Maus
Male NMRI mice (weight 25-35 gram, supplier IFFA CREDO, Bruxelles, Belgium) are used in the hypothermie assay. The animals are kept under standardized conditions: light/darkness interval (6:00 to 18:00 light; 18:00 to 6:00 Uhr darkness), room temperature 19-22° C., relative humidity 35-70%, 15 times per hour change of compartment air, airflow <0.2 m/sec. The animals were fed on a standardized diet (ssniff diet, ssniff Spezialdiäten GmbH, Soest, Germany) and tap water. Water and diet were detracted during the experiment. All animals were used once in the experiment. The animals were allowed to adapt to the experimental conditions for at least 5 days.
The acute application of capsaicin (VR-1 agonist) leads to a decrease of the core body temperature in rat and mice via stimulation of heat sensors. Only compounds which act as specific VR-1-receptor antagonists can antagonize the capsaicin induced hypothermie. In contrast, morphine induced hypothermie is not antagonized by VR-1 antagonists. Thus, this experiment is suitable for the determination of compounds that act as VR1-antagonists via their effect on the core body temperature.
For the determination of the core body temperature a digital thermometer was used (Thermalert TH-5, physitemp, Clifton N.J., USA). The measuring head was inserted into the rectum.
The individual basis value is determined by measuring the body temperature twice in an interval of about half an hour. […] […] The test compound is given 10 min (i.v.) or 15 min (p.o.), respectively, before application of capsaicin. The body temperature is determined 7.5/15 and 30 min after application of capsaicin (i.v.+i.p.) or 15/30/60/90/120 min after application of capsaicin (p.o.+i.p.), respectively. In addition, another group of mice is only given the test compound or a vehicle control.
The measuring points are given as average values±S.E.M. of the absolute values. The antagonistic effect is given in percent of inhibition of capsaicin induced hypothermie.

[4] = molecular target: T2, vanilloid receptor 1 (VR1/TRPV1) of the rat species (Rattus norvegicus, UniProt O35433); test: FLIPR Ca2+ influx assay on rat dorsal root ganglia cells (pharmacological method I); format: cell-based; details: table 4, capsaicin
T2 construct: The spinal column is removed from decapitated rats; from tissue; host or cells: primary cells dissociated from rat dorsal root ganglia
Summary of the method: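 Primary rat dorsal root ganglion cells loaded with 2 μM Fluo-4, Ca2+ influx read on FLIPR as peak fluorescence. Triplicates, at least 3 independent experiments.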

T2 sequence (O35433 whole entry): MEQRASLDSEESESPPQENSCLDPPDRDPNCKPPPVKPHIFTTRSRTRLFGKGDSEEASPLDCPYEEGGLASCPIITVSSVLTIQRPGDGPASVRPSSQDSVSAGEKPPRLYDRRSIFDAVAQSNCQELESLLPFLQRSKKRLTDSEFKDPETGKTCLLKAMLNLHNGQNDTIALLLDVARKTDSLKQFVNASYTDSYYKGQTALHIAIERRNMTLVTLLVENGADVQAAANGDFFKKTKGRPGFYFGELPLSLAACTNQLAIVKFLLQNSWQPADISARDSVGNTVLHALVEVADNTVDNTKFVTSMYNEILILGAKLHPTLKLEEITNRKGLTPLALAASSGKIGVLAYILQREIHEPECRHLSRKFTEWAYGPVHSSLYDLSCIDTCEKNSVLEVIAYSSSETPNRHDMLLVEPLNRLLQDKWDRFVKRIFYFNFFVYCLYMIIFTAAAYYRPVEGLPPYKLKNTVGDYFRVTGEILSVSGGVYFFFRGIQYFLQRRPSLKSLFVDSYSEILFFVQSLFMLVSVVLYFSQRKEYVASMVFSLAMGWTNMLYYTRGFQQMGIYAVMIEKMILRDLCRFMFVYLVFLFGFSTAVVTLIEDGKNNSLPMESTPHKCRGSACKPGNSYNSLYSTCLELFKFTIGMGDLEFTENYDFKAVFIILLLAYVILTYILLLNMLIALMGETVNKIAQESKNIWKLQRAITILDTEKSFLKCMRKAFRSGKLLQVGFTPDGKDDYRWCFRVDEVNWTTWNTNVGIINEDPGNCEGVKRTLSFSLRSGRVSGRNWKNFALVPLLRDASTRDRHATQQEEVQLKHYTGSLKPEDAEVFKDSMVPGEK
T1 sequence (Q8NER1 whole entry): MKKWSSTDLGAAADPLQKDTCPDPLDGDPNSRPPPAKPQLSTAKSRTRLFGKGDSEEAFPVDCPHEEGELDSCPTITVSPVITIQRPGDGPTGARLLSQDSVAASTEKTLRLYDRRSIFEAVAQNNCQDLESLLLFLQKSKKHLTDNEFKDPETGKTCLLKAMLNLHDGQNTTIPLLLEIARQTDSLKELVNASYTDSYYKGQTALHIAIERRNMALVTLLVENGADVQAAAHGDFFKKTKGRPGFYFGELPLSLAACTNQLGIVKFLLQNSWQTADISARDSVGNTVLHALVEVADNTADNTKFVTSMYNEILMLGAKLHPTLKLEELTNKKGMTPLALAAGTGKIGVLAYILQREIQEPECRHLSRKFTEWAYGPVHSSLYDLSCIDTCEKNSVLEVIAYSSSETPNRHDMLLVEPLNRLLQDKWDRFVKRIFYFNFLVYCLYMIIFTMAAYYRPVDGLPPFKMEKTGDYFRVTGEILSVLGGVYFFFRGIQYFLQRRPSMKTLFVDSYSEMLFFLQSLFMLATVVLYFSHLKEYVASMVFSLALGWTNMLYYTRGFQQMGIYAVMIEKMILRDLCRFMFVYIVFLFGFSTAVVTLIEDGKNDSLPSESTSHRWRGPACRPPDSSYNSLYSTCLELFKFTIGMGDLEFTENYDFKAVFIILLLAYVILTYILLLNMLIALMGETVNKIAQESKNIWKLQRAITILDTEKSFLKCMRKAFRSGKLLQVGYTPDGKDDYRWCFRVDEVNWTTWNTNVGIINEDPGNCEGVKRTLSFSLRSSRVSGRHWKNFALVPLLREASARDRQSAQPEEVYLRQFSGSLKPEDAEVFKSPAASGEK
Sequence of VR1/TRPV1 receptor (Q8NER1 whole entry): as above

SMILES: COc1cccc(COc2nc(C(F)(F)F)ccc2CNC(=O)C(C)c2ccc(NS(C)(=O)=O)c(F)c2)c1 (stereo not shown) [Example 107, 2-(3-fluoro-4-methylsulfonamido-phenyl)-N-[2-(3-methoxy-benzyloxy)-6-trifluoromethyl-pyridin-3-ylmethyl]-propionamide]
- IC50 [1]: 43.7 nM
- Ki [2]: 0.8 nM
- inhibition in vivo at 0.3 mg/kg [3]: 21%
- Ki ([4]; Ki (rat) Cap.): 1 nM

SMILES: CCCN(CCC)c1nc(C(F)(F)F)ccc1CNC(=O)C(C)c1ccc(NS(C)(=O)=O)c(F)c1 (stereo not shown) [Example 16, N-((2-(dipropylamino)-6-(trifluoromethyl)pyridin-3-yl)methyl)-2-(3-fluoro-4-(methylsulfonamido)phenyl)propanamide]
- IC50 [1]: 14.7 nM
- Ki [2]: 0.2 nM
- inhibition in vivo at 0.3 mg/kg [3]: 12%
- Ki ([4]; read-out: Ki (rat) Cap.): 0.8 nM

SMILES: CC(C(=O)NCc1ccc(C(F)(F)Cl)nc1N1CCCCCC1)c1ccc(NS(C)(=O)=O)c(F)c1 (stereo not shown) [Example 132, N-[2-azepan-1-yl-6-(chloro-difluoro-methyl)-pyridin-3-ylmethyl]-2-(3-fluoro-4-methylsulfonamido-phenyl)-propionamide]
- IC50 [1]: 14.7 nM
- inhibition in vivo at 0.3 mg/kg [3]: 0%
- Ki ([4]; read-out: Ki (rat) Cap.): 0.7 nM

SMILES: CC(C(=O)NCc1ccc(C(F)(F)F)nc1N1CCC(Nc2ccccc2)CC1)c1ccc(NS(C)(=O)=O)c(F)c1 (stereo not shown) [Example 290, 2-(3-fluoro-4-methylsulfonamido-phenyl)-N-(4-phenylamino-6′-trifluoromethyl-3,4,5,6-tetrahydro-2H-[1,2′]bipyridinyl-3′-ylmethyl)-propionamide]
- IC50 [1]: 480 nM
- Ki [2]: 4.4 nM
- inhibition in vivo at 0.1 mg/kg [3]: 24%

SMILES: CC(C(=O)NCc1ccc(C(F)(F)F)nc1N1Cc2ccccc2C1)c1ccc(NS(C)(=O)=O)c(F)c1 (stereo not shown) [Example 188, N-[2-(1,3-dihydro-isoindol-2-yl)-6-trifluoromethyl-pyridin-3-ylmethyl]-2-(3-fluoro-4-methylsulfonamido-phenyl)-propionamide]
- IC50 [1]: 192 nM
- Ki [2]: 5 nM
- inhibition in vivo at 0.3 mg/kg [3]: 0%
- Ki ([4]; read-out: Ki (rat) Cap.): 5 nM

SMILES: CC(C(=O)NCc1ccc(C(F)(F)F)nc1-c1ccc(F)cc1)c1ccc(NS(C)(=O)=O)c(F)c1 (stereo not shown) [Example 89]
- IC50 [1]: 131 nM
- Ki [2]: 0.4 nM
- inhibition in vivo at 0.3 mg/kg [3]: 1%
- Ki ([4]; read-out: Ki (rat) Cap.): 1.2 nM

SMILES: CC(C(=O)NCc1ccc(C(F)(F)F)nc1N1CCC(c2ccccc2)CC1)c1ccc(NS(C)(=O)=O)c(F)c1 (stereo not shown) [Example 137]
- inhibition in vivo at 0.3 mg/kg [3]: 9%
- Ki ([4]; read-out: Ki (rat) Cap.): 1.9 nM

SMILES: CC(C(=O)NCc1ccc(C(F)(F)F)nc1Nc1ccccc1)c1ccc(NS(C)(=O)=O)c(F)c1 (stereo not shown) [Example 110, 2-(3-fluoro-4-methylsulfonamido-phenyl)-N-(2-phenylamino-6-trifluoromethyl-pyridin-3-ylmethyl)-propionamide]
- IC50 [1]: 1400 nM
- Ki [2]: 59.6 nM
- inhibition in vivo at 0.3 mg/kg [3]: 13%
- Ki ([4]; read-out: Ki (rat) Cap.): 63.1 nM

SMILES: CC(C(=O)NCc1ccc(C(F)(F)F)cc1OCc1ccccc1)c1ccc(NS(C)(=O)=O)c(F)c1 (stereo not shown) [Example 209, N-(2-benzyloxy-4-trifluoromethyl-benzyl)-2-(3-fluoro-4-methylsulfonamido-phenyl)-propionamide]
- IC50 [1]: 34.9 nM
- Ki [2]: 0.9 nM
- inhibition in vivo at 3 mg/kg ([3]; 3 mg/kg body weight po): 46%
- Ki ([4]; read-out: Ki (rat) Cap.): 0.2 nM

SMILES: CC(C(=O)NCc1ccc(C(F)(F)F)nc1-c1ccc(Cl)cc1)c1ccc(NS(C)(=O)=O)c(F)c1 (stereo not shown) [Example 147, N-[2-(4-chloro-phenyl)-6-trifluoromethyl-pyridin-3-ylmethyl]-2-(3-fluoro-4-methylsulfonamido-phenyl)-propionamide]
- IC50 [1]: 10.4 nM
- Ki [2]: 0.7 nM
- inhibition in vivo at 0.3 mg/kg [3]: 3%
- Ki ([4]; read-out: Ki (rat) Cap.): 1 nM

SMILES: CC(C(=O)NCc1ccc(C(C)(C)C)cc1OC1CCCCC1)c1ccc(NS(C)(=O)=O)c(F)c1 (stereo not shown) [Example 154, N-(4-tert-butyl-2-cyclohexyloxy-benzyl)-2-(3-fluoro-4-methylsulfonamido-phenyl)-propionamide]
- IC50 [1]: 534 nM
- Ki [2]: 8.1 nM
- inhibition in vivo at 0.3 mg/kg [3]: 12%
- Ki ([4]; read-out: Ki (rat) Cap.): 1.7 nM

SMILES: CC(C(=O)NCc1ccc(C(F)(F)F)nc1N1CCN(c2ncccc2Cl)CC1C)c1ccc(NS(C)(=O)=O)c(F)c1 (stereo not shown) [Example 194, N-{2-[4-(3-chloro-pyridin-2-yl)-2-methyl-piperazin-1-yl]-6-trifluoromethyl-pyridin-3-ylmethyl}-2-(3-fluoro-4-methylsulfonamido-phenyl)-propionamide]
- inhibition at 1 µM ([1]; @ 1 μM, ne = no effect, read-out: inhibition in percent, IC50 (human) after pH stimulus): 21%
- Ki [2]: 4.1 nM
- inhibition in vivo at 0.3 mg/kg [3]: 14%
- Ki ([4]; read-out: Ki (rat) Cap.): 3.8 nM

SMILES: CC(C)CCOc1nc(C(F)(F)F)ccc1CNC(=O)C(C)c1ccc(NS(C)(=O)=O)c(F)c1 (stereo not shown) [Example 123, 2-(3-fluoro-4-methylsulfonamido-phenyl)-N-[2-(3-methyl-butoxy)-6-trifluoromethyl-pyridin-3-ylmethyl]-propionamide]
- IC50 [1]: 15.1 nM
- Ki [2]: 0.8 nM
- inhibition in vivo at 0.3 mg/kg [3]: 47%
- Ki ([4]; read-out: Ki (rat) Cap.): 0.6 nM

SMILES: CC(C(=O)NCc1ccc(C(F)(F)F)nc1OCC1CC1C)c1ccc(NS(C)(=O)=O)c(F)c1 (stereo not shown) [Example 124, 2-(3-fluoro-4-methylsulfonamido-phenyl)-N-[2-(2-methyl-cyclopropylmethoxy)-6-trifluoromethyl-pyridin-3-ylmethyl]-propionamide]
- IC50 [1]: 5.1 nM
- Ki [2]: 0.3 nM
- inhibition in vivo at 0.3 mg/kg [3]: 39%
- Ki ([4]; read-out: Ki (rat) Cap.): 0.4 nM

SMILES: CC(C(=O)NCc1ccc(C(F)(F)F)nc1OCC1CC1)c1ccc(NS(C)(=O)=O)c(F)c1 (stereo not shown) [Example 100, N-(2-cyclopropylmethoxy-6-trifluoromethyl-pyridin-3-ylmethyl)-2-(3-fluoro-4-methylsulfonamido-phenyl)-propionamide]
- IC50 [1]: 115 nM
- Ki [2]: 1.1 nM
- inhibition in vivo at 0.3 mg/kg [3]: 26%
- Ki ([4]; Ki (rat) Cap.): 1.2 nM

SMILES: CC(C(=O)NCc1ccc(C(F)(F)F)nc1N1CCCCCC1)c1ccc(NS(C)(=O)=O)c(F)c1 (stereo not shown) [Example 81, N-(2-azepan-1-yl-6-trifluoromethyl-pyridin-3-ylmethyl)-2-(3-fluoro-4-methylsulfonamido-phenyl)-propionamide]
- inhibition in vivo at 0.3 mg/kg [3]: 21%
- Ki ([4]; read-out: Ki (rat) Cap.): 2.4 nM

SMILES: CC(C)COc1cc(C(F)(F)F)ccc1CNC(=O)[C@H](C)c1ccc(NS(C)(=O)=O)c(F)c1 [Example 99, (R)-2-(3-fluoro-4-methylsulfonamido-phenyl)-N-(2-isobutoxy-4-trifluoromethyl-benzyl)-propionamide]
- IC50 [1]: 419 nM
- Ki [2]: 5.8 nM
- inhibition in vivo at 0.3 mg/kg [3]: 1%

SMILES: CC(C(=O)NCc1ccc(C(F)(F)F)nc1-n1ccnc1)c1ccc(NS(C)(=O)=O)c(F)c1 (stereo not shown) [Example 87, 2-(3-fluoro-4-methylsulfonamido-phenyl)-N-((6-(trifluoromethyl)-2-(1H-imidazol-1-yl)pyridin-3-yl)methyl)-propionamide]
- IC50 [1]: 2570 nM
- inhibition in vivo at 0.3 mg/kg [3]: 0%
- Ki ([4]; read-out: Ki (rat) Cap.): 143 nM

SMILES: CC(C(=O)NCc1ccc(C(F)(F)F)nc1OCc1ccccc1)c1ccc(NS(C)(=O)=O)c(F)c1 (stereo not shown) [Example 106, N-(2-benzyloxy-6-trifluoromethyl-pyridin-3-ylmethyl)-2-(3-fluoro-4-methylsulfonamido-phenyl)-propionamide]
- IC50 [1]: 18.6 nM
- Ki [2]: 0.5 nM
- inhibition in vivo at 0.1 mg/kg [3]: 24%
